Patent US20080039535A1, “METHODS OF IDENTIFYING AGENTS FOR TREATING NEUROLOGICAL DISORDERS” (Wyeth, priority 2006, published 2008)
Read-outs that look alike come from different tables or passages of the source.

Experiments:
GPR88 KO and WT mice [1] = assay: Phencyclidine-stimulated locomotor hyperactivity; assay type: in vivo
[2] = target: T1, striatal dopamine D2 receptors (Mus musculus, UniProt P61168); assay: [3H]spiperone binding to striatal membrane preparations; set-up: species or system mice
T1 construct: from tissue; host or cells: mouse striatum (WT and GPR88 knockout mice), membrane preparation
T1 sequence (P61168 whole entry): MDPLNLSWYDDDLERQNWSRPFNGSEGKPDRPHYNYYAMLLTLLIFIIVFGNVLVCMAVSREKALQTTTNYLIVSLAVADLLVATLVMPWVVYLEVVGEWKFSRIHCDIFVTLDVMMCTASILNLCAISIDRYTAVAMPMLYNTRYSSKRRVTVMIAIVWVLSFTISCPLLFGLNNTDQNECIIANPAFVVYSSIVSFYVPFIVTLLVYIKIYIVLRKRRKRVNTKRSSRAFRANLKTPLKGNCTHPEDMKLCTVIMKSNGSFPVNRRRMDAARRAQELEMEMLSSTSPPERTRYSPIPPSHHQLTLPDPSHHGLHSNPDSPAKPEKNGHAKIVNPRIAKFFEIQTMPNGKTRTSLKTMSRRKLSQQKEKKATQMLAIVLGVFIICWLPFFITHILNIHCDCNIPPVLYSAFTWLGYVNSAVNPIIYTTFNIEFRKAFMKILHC
Procedure: Striata from 10 mice (male and female, WT & GPR88 KO) were pooled and homogenized in a motor-driven POLYTRON™ homogenizer (Kinematica AG, Newark, N.J.) at setting six for 10 seconds in 3 mL per 100 mg of wet tissue in 50 mM Tris-HCl buffer, pH 7.4, containing 120 mM NaCl, 5 mM KCl, 1.5 mM CaCl2, 4 mM MgCl2, and 1 mM EDTA. […] The binding of each concentration of radioligand was determined in duplicate. Incubations were carried out at room temperature for 120 minutes. The final concentration of the membrane protein in each binding assay was approximately 70 μg/ml. Butaclamol (+), (10 μM), (Sigma-Aldrich, St. Louis, Mo.) was used to define the nonspecific binding. The incubations were terminated by rapid filtration using a Wallac Tomtec harvester (Waltham, Mass.) and buffer-presoaked glass fiber filter mats (GF/B, Whatman Inc. Florham Park, N.J.). […] The radioactivity of the filters was then counted in a Wallac 1205 scintillation counter (Perkin Elmer Life and Analytical Sciences).
The estimates of Bmax (the number of available binding receptors) and Kd (the dissociation constant) were calculated by fitting the specific binding data with nonlinear regression using GraphPad PRISM™ data analysis software (GraphPad Software, San Diego, Calif.).

GPR88 KO and WT mice [3] = assay: Amphetamine-stimulated locomotor hyperactivity; assay type: in vivo; conditions: 3 mg/kg i.p.
Procedure: The amphetamine-stimulated locomotor hyperactivity assay is another type of assay to model the neuropathological states in schizophrenia, similar to the hyperdopaminergia in the ventral striatum. To measure spontaneous activity and amphetamine-stimulated locomotor hyperactivity, the mice were individually placed in Opto-Veramax-3 monitor cages (Columbus Instruments, Columbus, Ohio) and allowed to habituate for 30 minutes with room light and white noise on. After habituation, each mouse was injected with amphetamine (AMPH, 3 mg/kg) in the intraperitoneum. During the first 30 minutes, the spontaneous activity was recorded every 10 minutes. After amphetamine administration, amphetamine-stimulated locomotor hyperactivity was measured every 10 minutes over a 60 minutes time span by the activity monitor. Accuscan Versamax and Versadat software (Columbus Instruments, Columbus, Ohio) were used to convert the infrared beam breaks into horizontal activity counts. […] Males and females were analyzed separately.

GPR88 KO and WT mice [4] = assay: In vivo striatal microdialysis, extracellular dopamine after amphetamine; conditions: 3 mg/kg i.p.; both genotypes, males and females
Procedure: Chromatographic separations were performed using a Capcell PAK™, Strong Cation Exchange columns (5 μm UG80, 1.5×150 mm; Shiseido, Phenomenex, USA). The mobile phase comprised (mM) 13 Na2HPO4, 87 NaH2PO4, 0.1 EDTA and 20% methanol, was adjusted to pH 6 and delivered at 0.2 ml/minutes at 40° C.

GPR88 KO and WT mice [5] = assay: Apomorphine-induced climbing and stereotypy; assay type: in vivo
Procedure: (§1) The GPR88 KO and WT mice were acclimated to a wire cage (cylindrical ½″×½″ mesh with the dimensions of 4½″ d×5½″ h) for at least 2 hours before testing to allow proper habituation. […] (+ present, − absent). Readings were repeated every 5 minutes during a 30-minute test session.
The behavioral assessment was conducted over three conditions in succession: (1) an evaluation of the response to a subcutaneous vehicle (0.25% TWEEN® 80) injection to establish a baseline; (2) followed by an evaluation of the response to a dose of 0.3 mg/kg subcutaneous apomorphine injection; (3) followed by an evaluation of the response to 1 mg/kg subcutaneous apomorphine injection. Behavioral observation began 5 minutes after each injection. Vehicle was given at T0 minutes with observational assessment from T5-T35 minutes and habituation followed from T35-T65 minutes.
At T65, the 0.3 mg/kg dose of apomorphine was administered. Behavioral observation for the 0.3 mg/kg dose of apomorphine was from T70-T100, followed by another habituation from T100-T130 minutes.
At T130 min, the 1.0 mg/kg dose of apomorphine was administered and then the mice were scored from T135-T165 min. For each subject, the climbing scores were totaled for each observational period (maximum=12 per animal). Stereotypy scores were also summed up (maximum=6 per animal). […] Males and females were analyzed separately.

GPR88 KO and WT mice [6] = assay: Haloperidol-induced catalepsy; conditions: 1 mg/kg i.p.; for percentage of maximum catalepsy over time: 30, 60, 90, 120 minutes
Procedure: Thirty, 60, 90, and 120 minutes following drug administration, the animal's forelimbs were draped over a thin horizontal rod 1¼″ high. The amount of time in seconds for which the animal maintained this awkward posture was recorded (60 seconds was maximum). Maintenance of this position was considered catalepsy. Animals that appeared to be sedated or had loss of muscle tone were checked for a righting reflex. Those mice that could not right themselves when placed on their backs were eliminated from the study. Mean time spent in the catalepsy position for the dose at each time was expressed as a percentage of maximum possible catalepsy. During the study's four time periods, the number of seconds with maintenance of the catalepsy position was recorded for each animal. Data was subjected to repeated-measures ANOVA followed by post-hoc analysis of least squares means. Males and females were analyzed separately.

GPR88 KO and WT mice [7] = assay: Antipsychotic block of apomorphine-induced climbing and stereotypy; assay type: in vivo; conditions: for minimal effective dose (MED), block of apomorphine-induced climbing / minimal effective dose (MED), block of apomorphine-induced stereotypy: i.p. 30 minutes before apomorphine 0.54 mg/kg
Procedure: as §1
Observation and scoring for climbing and stereotypy were performed as described in Example 6. […] Males and females were analyzed separately. […] For graphical representation, the data was normalized to the amount of climbing and stereotypy shown by the vehicle treated control group.

GPR88 KO and WT mice [8] = conditions: for percentage prepulse inhibition (PPI), treatment effect: 0.54 mg/kg i.p. 30 minutes before testing, vs vehicle
Procedure: To detect potential phenotypic deficits in the GPR88 knockout mice, they were first evaluated for startle habituation. In brief, mice were tested using the SR-LAB (San Diego Instruments, San Diego, Calif.) system. Each system consists of a ventilated sound attenuated chamber containing a stabilimeter consisting of a Plexiglas cylinder (12.5 cm length, 3.5 cm diameter) mounted on a Plexiglas frame. Acoustic stimuli were delivered through a speaker mounted in the enclosure ceiling, that was 27 cm above the cylinder. Startle responses were transduced by a piezoelectric accelerometer mounted beneath the frame. Output signals were digitized and rectified as consecutive 1-millisecond (msec) readings (a total of 65 were recorded, and startle response was expressed as an averaged response across these samples) on a computer using the San Diego Instrument software. Mice were placed individually in the chamber for a 5-minute acclimation period at a background noise level of 64 dB.
Prepulse inhibition was measured immediately following the startle sensitivity test. Five different trial tests were used in studying prepulse inhibition and were performed in a pseudorandom order. These trial tests included (1) a no stimulus trial (64 dB background noise to determine basal activity), a pulse alone trial (118 dB, 40 ms duration), and three 20 ms prepulses at either 69, 76, or 84 dB intensities paired (100 ms, onset to onset) with the 118 dB pulse. […] Percentage prepulse inhibition was calculated as 100 minus the ratio of the average startle response observed at each prepulse+pulse trial relative to the pulse alone stimulus, times 100. The percentage prepulse at across dB levels was analyzed by repeated-measures ANOVA. […] Males and females were analyzed separately. […]
The PPI was averaged across the 3 dB levels and analyzed by a two-way ANOVA with genotype and treatment as the factors followed by a post hoc analysis of least square means. Males and females were again analyzed separately.

[9] = female GPR88 KO and WT mice, 1 mg/kg s.c.
[10] = GPR88 KO and WT female mice, 0.3 mg/kg
[11] = male WT mice, 0.54 and 1.0 mg/kg

With `c1ccc(C2(N3CCCCC3)CCCCC2)cc1` [PCP, phencyclidine] the “locomotor activity after administration” value (GPR88 KO and WT mice [1]; female WT and GPR88 KO mice, 1.0 mg/kg) was “Neither of the genotypes responded”, the “locomotor activity after administration” value (GPR88 KO and WT mice [1]; female WT and GPR88 KO mice, 1.7 mg/kg or 3.0 mg/kg) was “increased locomotor activity” and the “locomotor activation (total distance traveled), KO compared with WT” value (GPR88 KO and WT mice [1]; female mice) was “increased sensitivity for locomotor activation”. For the same compound, the “locomotor activity after administration” value (GPR88 KO and WT mice [1]; male WT and GPR88 KO mice, 3 mg/kg i.p.) was “increased locomotor activity”, the “locomotor activity after administration” value (GPR88 KO and WT mice [1]; male WT and GPR88 KO mice, lower doses (1.0, 1.7 mg/kg)) was “Neither of the genotypes responded” and the “locomotor activation (total distance traveled), KO compared with WT” value (GPR88 KO and WT mice [1]; male mice) was “increased sensitivity for locomotor activation”.

With `O=C(CCCN1CCC2(CC1)C(=O)NCN2c1ccccc1)c1ccc(F)cc1` [[^3H]spiperone] the “Bmax (the number of available binding receptors)” value ([2]; striatal membranes of GPR88 KO mice) was 1.83 pmol/mg and the “Bmax (the number of available binding receptors)” value ([2]; striatal membranes of WT mice) was 1.34 pmoles/mg protein.

In the case of `CC(N)Cc1ccccc1` (centres unmarked) [amphetamine], the “locomotor activity after administration” value (GPR88 KO and WT mice [3]; female mice, 40-90 min) is reported as “significant increase in activity”, the “locomotor activity, KO compared with WT” value (GPR88 KO and WT mice [3]; female mice, 40-90 min) is reported as “more hyperactivity overall” and the “locomotor activity after administration” value (GPR88 KO and WT mice [3]; male mice (GPR88 KO), 40-90 min) is reported as “significant increase in activity”. The “locomotor activity, KO compared with WT” value (GPR88 KO and WT mice [3]; male mice) was “greater increase in activity up to the 50 minute time point” and the “striatal extracellular dopamine after administration” value (GPR88 KO and WT mice [4]) was “significant and equal increase in dopamine”.

For `CN1CCc2cccc3c2[C@H]1Cc1ccc(O)c(O)c1-3` [apomorphine], the “average increase in climbing scores of GPR88 KO mice over the wild type mice” value (GPR88 KO and WT mice [5]; apomorphine-induced) was 227%, the “average increase in stereotypy scores of GPR88 KO mice over the wild type mice” value (GPR88 KO and WT mice [5]; apomorphine-induced) was 129% and the “climbing, dose effect” value (GPR88 KO and WT mice [5]; [9]) was “the most climbing”. For the same compound, the “stereotypy, dose effect” value (GPR88 KO and WT mice [5]; [9]) was “the most stereotypy”, the “climbing scores, KO compared with WT” value (GPR88 KO and WT mice [5]; female mice, 0.3 mg/kg s.c.) was “higher climbing scores” and the “stereotypy, KO compared with WT” value (GPR88 KO and WT mice [5]; female mice, 0.3 mg/kg s.c.) was “more stereotypy”. The “climbing, KO compared with WT” value (GPR88 KO and WT mice [5]; female mice, 1 mg/kg s.c.) was “equivalent”, the “stereotypy scores, dose effect” value (GPR88 KO and WT mice [5]; male GPR88 KO and WT mice, 1 mg/kg s.c.) was “maximal stereotypy” and the “climbing scores, dose effect” value (GPR88 KO and WT mice [5]; male GPR88 KO and WT mice, vehicle, 0.3 and 1 mg/kg s.c.) was “climbing increasing with the dose of apomorphine”. The “climbing scores, KO compared with WT” value (GPR88 KO and WT mice [5]; male mice, 0.3 mg/kg s.c.) was “higher climbing scores”, the “stereotypy, KO compared with WT” value (GPR88 KO and WT mice [5]; male mice, 0.3 mg/kg s.c.) was “more stereotypy” and the “climbing, KO compared with WT” value (GPR88 KO and WT mice [5]; male mice, 1 mg/kg s.c.) was “equivalent”. For the same compound, the “stereotypy, KO compared with WT” value (GPR88 KO and WT mice [5]; male mice, 1 mg/kg s.c.) was “equivalent”.

`O=C(CCCN1CCC(O)(c2ccc(Cl)cc2)CC1)c1ccc(F)cc1` [haloperidol] was tested, and the “percentage of maximum catalepsy over time” value (GPR88 KO and WT mice [6]; GPR88 KO and WT male mice) was “percentage of maximum catalepsy increasing to the 120 minute test point”, the “percentage of maximum catalepsy over time” value (GPR88 KO and WT mice [6]; female mice) was “percentage of maximum catalepsy increasing to the 120 minute test point” and the “level of catalepsy, GPR88 KO compared with WT” value (GPR88 KO and WT mice [6]; male and female mice) was “equivalent levels of catalepsy”. The “block of apomorphine-induced climbing” value (GPR88 KO and WT mice [7]; [10]) was “full block of climbing”, the “block of apomorphine-induced stereotypy” value (GPR88 KO and WT mice [7]; [10]) was “full block of stereotypy” and the “dose required to produce a full block of climbing” value (GPR88 KO and WT mice [7]; male GPR88 KO mice) was 1.0 mg/kg. The “minimal effective dose, apomorphine-induced climbing and stereotypy (summary)” value (GPR88 KO and WT mice [7]; male GPR88 KO mice) was 0.54 mg/kg, the “block of apomorphine-induced stereotypy” value (GPR88 KO and WT mice [7]; male GPR88 KO mice, 1.0 mg/kg) was 50% and the “minimal effective dose (MED), block of apomorphine-induced climbing” value (GPR88 KO and WT mice [7]; male GPR88 KO mice) was 0.54 mg/kg. The “minimal effective dose (MED), block of apomorphine-induced stereotypy” value (GPR88 KO and WT mice [7]; male GPR88 KO mice) was 0.54 mg/kg, the “minimal effective dose, apomorphine-induced climbing and stereotypy (summary)” value (GPR88 KO and WT mice [7]; male WT mice) was < 0.3 mg/kg and the “block of apomorphine-induced climbing” value (GPR88 KO and WT mice [7]; [11]) was “full block of climbing”. The “block of apomorphine-induced stereotypy” value (GPR88 KO and WT mice [7]; [11]) was “full block of stereotypy”, the “minimal effective dose (MED), block of apomorphine-induced climbing” value (GPR88 KO and WT mice [7]; male WT mice) was “less than or equal to 0.3 mg/kg” and the “minimal effective dose (MED), block of apomorphine-induced stereotypy” value (GPR88 KO and WT mice [7]; male WT mice) was “less than or equal to 0.3 mg/kg”.

For `Cc1nc2n(c(=O)c1CCN1CCC(c3noc4cc(F)ccc34)CC1)CCCC2` [risperidone], the “deficit in PPI of GPR88 KO mice upon treatment” value (GPR88 KO and WT mice [8]; GPR88 KO mice, summary statement) was “normalized”, the “percentage prepulse inhibition (PPI), treatment effect” value (GPR88 KO and WT mice [8]; male GPR88 KO mice) was “significant treatment effect” and the “percentage prepulse inhibition (PPI), treatment effect” value (GPR88 KO and WT mice [8]; male WT mice) was “significant treatment effect”.
